Reference: patent US7671068B2, “N-(alkoxyalkyl) carbamoyl-substituted 6-phenyl-benzonaphthyridine derivatives and their use as PDE ¾ inhibitors” (NYCOMED GmbH, priority 2004, dated 2010)

How the values were obtained:
[1] = test system: PDE4 (cAMP-specific) in the cytosol of human polymorphonuclear leukocytes (PMNL); assay: PDE4 inhibition, Method A (radioactive PDE assay after Thompson et al.); format: biochemical; conditions: cAMP substrate, motapizone 1 μM
Experimental: (§1) The PDE activity was determined according to Thompson et al. (Adv Cycl Nucl Res 10: 69-92, 1979) with some modifications (Bauer and Schwabe, Naunyn-Schmiedeberg's Arch Pharmacol 311: 193-198, 1980). The test samples contained 20 mM Tris (pH 7.4), 5 mM MgCl2, 0.5 μM CAMP or cGMP, [^3H]cAMP or [^3H]cGMP (about 30 000 cpm/sample), the PDE isoenzyme-specific additives described in greater detail below, the indicated concentrations of inhibitor and an aliquot of the enzyme solution in a total sample volume of 200 μl. Dilution series of the compounds according to the invention were prepared in DMSO and further diluted in the samples [1:100 (v/v)], to give the desired end concentration of the inhibitors at a DMSO concentration of 1% (v/v), which for its part has only a minute effect on PDE activity.
(§2) After preincubation at 37° C. for 5 minutes, the reaction was started by addition of the substrate (CAMP or cGMP). The samples were incubated at 37° C. for a further 15 min. The reaction was terminated by addition of 50 μl 0.2 N HCl. After cooling on ice for 10 minutes and addition of 25 μg 5′-nucleotidase (snake venom from Crotalus atrox), the mixture was again incubated at 37° C. for 10 min and the samples were then applied to QAE Sephadex A-25 columns (sample volume 1 ml). The columns were eluted with 2 ml of 30 mM ammonium formate (pH 6.0). The radioactivity of the eluate was measured and corrected by the corresponding blank values (measured in the presence of denatured protein); the blank values were less than 5% of the total radioactivity. In no case did the proportion of hydrolyzed nucleotide exceed 30% of the original substrate concentration.
PDE4 (cAMP-specific) was investigated in the cytosol of human polymorphonuclear leukocytes (PMNL) [isolated from leukocyte concentrates, see Schudt et al., Arch Pharmacol 1991: 344, 682-690] using cAMP as substrate. The PDE3 inhibitor motapizone (1 μM) was used to suppress the PDE3 activity emanating from contaminated platelets.
(§3) The IC50 values were determined from the concentration-inhibition curves by nonlinear regression.
(§4) The inhibitory values of the compounds 1-16 and 22-24 have been determined according to Method A. The inhibitory values of the compounds 17-21 have been determined according to Method B.

[2] = biological target: T1, PDE3 (cGMP-inhibited) in homogenates of human platelets (Homo sapiens, UniProt Q14432); assay: PDE3 inhibition, Method A (radioactive PDE assay after Thompson et al.); format: biochemical; conditions: read-out: PDE3 [−log IC50, mol/l] (converted)
T1 construct: investigated in homogenates of human platelets; from tissue; host or cells: homogenates of human platelets
T1 sequence (Q14432 whole entry): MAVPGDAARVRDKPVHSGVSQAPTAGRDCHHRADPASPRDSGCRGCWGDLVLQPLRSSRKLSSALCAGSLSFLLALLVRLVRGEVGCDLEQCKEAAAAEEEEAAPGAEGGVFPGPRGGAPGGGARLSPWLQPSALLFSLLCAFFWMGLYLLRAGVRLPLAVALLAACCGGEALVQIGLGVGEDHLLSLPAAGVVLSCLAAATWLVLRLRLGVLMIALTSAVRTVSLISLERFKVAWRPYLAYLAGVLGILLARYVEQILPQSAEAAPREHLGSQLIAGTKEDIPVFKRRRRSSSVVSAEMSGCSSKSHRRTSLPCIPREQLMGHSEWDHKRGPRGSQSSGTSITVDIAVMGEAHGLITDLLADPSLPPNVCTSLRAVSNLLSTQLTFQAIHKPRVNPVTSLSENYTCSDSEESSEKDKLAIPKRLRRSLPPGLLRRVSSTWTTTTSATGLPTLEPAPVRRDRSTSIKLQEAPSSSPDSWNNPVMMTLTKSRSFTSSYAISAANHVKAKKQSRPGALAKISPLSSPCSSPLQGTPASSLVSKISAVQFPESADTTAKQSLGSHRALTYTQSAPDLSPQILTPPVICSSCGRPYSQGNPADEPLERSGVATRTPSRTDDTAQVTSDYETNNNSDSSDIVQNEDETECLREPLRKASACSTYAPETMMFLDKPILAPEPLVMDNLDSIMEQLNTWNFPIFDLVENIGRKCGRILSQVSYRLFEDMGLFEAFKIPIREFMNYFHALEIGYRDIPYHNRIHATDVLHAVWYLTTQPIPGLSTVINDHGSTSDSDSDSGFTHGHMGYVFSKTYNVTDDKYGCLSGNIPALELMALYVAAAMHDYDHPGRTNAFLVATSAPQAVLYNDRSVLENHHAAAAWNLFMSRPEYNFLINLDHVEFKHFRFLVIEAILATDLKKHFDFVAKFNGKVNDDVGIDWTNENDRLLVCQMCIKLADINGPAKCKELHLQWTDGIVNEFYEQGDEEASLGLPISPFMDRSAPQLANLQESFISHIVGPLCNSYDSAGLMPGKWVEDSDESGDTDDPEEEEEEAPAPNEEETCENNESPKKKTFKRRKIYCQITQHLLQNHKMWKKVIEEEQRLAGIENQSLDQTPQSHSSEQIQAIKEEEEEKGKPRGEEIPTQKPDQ
Experimental: as §1, §2
PDE3 (cGMP-inhibited) was investigated in homogenates of human platelets (see Schudt et al., Biochem Pharmacol 1991: 42, 153-162) using CAMP or cGMP as substrate.
as §3, §4

| SMILES | PDE4 [−log IC50, mol/l] [1] | IC50 [2] |
| --- | --- | --- |
| CCOc1cc2c(cc1OC)C(c1ccc(C(=O)NCCCOC(C)C)cc1)=N[C@@H]1CCN(C)C[C@H]21.Cl [Compound 1] | 8.9 mol/l |  |
| CCOc1cc2c(cc1OC)C(c1ccc(C(=O)N(C(C)C)[C@@H](C)COC)cc1)=N[C@@H]1CCN(C)C[C@H]21.Cl [Compound 11, 4-((4aR,10bS)-9-Ethoxy-8-methoxy-2-methyl-1,2,3,4,4a,10b-hexahydro-benzo [c][1,6]naphthyridin-6-yl)-N-isopropyl-N-((S)-2-methoxy-1-methyl-ethyl)-benzamide; hydrochloride] | 9.0 mol/l | 79.4 nM |
| CCOc1cc2c(cc1OC)C(c1ccc(C(=O)N(Cc3ccccc3)[C@@H](C)COCc3ccccc3)cc1)=N[C@@H]1CCN(C)C[C@H]21 [Compound 23, N-Benzyl-N-((S)-2-benzyloxy-1-methyl-ethyl)-4-((4aR,10bS)-9-ethoxy-8-methoxy-2-methyl-1,2,3,4,4a,10b-hexahydro-benzo[c][1,6]naphthyridin-6-yl)-benzamide] | 9.5 mol/l | 158 nM |
| CCOc1cc2c(cc1OC)C(c1ccc(C(=O)N(C(C)C)[C@H](C)COCc3ccccc3)cc1)=N[C@@H]1CCN(C)C[C@H]21 [Compound 8, N—((R)-2-Benzyloxy-1-methyl-ethyl)-4-((4aR,10bS)-9-ethoxy-8-methoxy-2-methyl-1,2,3,4,4a,10b-hexahydro-benzo[c][1,6]naphthyridin-6-yl)-N-isopropyl-benzamide] | 9.8 mol/l | 31.6 nM |
| CCOc1cc2c(cc1OC)C(c1ccc(C(=O)N(C)CCOC)cc1)=N[C@@H]1CCN(C)C[C@H]21.Cl [Compound 15, 4-((4aR,10bS)-9-Ethoxy-8-methoxy-2-methyl-1,2,3,4,4a,10b-hexahydro-benzo [c][1,6]naphthyridin-6-yl)-N-(2-methoxy-ethyl)-N-methyl-benzamide; hydrochloride] | 8.0 mol/l | 251 nM |
| CCOc1cc2c(cc1OC)C(c1ccc(C(=O)N(C(C)C)C(C)CCOCc3ccccc3)cc1)=N[C@@H]1CCN(C)C[C@H]21 (mixture of isomers) [Compound 10, N-(3-Benzyloxy-1-methyl-propyl)-4-((4aR,10bS)-9-ethoxy-8-methoxy-2-methyl-1,2,3,4,4a,10b-hexahydro-benzo[c][1,6]naphthyridin-6-yl)-N-isopropyl-benzamide] | 8.9 mol/l | 100 nM |
| CCOc1cc2c(cc1OC)C(c1ccc(C(=O)NC(CC)COC)cc1)=N[C@@H]1CCN(C)C[C@H]21.Cl (mixture of isomers) [Compound 3, 4-((4aR,10bS)-9-Ethoxy-8-methoxy-2-methyl-1,2,3,4,4a,10b-hexahydro-benzo [c][1,6]naphthyridin-6-yl)-N-(1(rac)-methoxymethyl-propyl)-benzamide; hydrochloride] | 9.0 mol/l | 1000 nM |
| CCOc1cc2c(cc1OC)C(c1ccc(C(=O)NCCCOC(C)C)cc1)=N[C@@H]1CCN(C)C[C@H]21.Cl [Compound 1, 4-(4aR,10bS)-9-Ethoxy-8-methoxy-2-methyl-1,2,3,4,4a,10b-hexahydro-benzo [c][1,6]naphthyridin-6-yl)-N-(3-isopropoxy-propyl)-benzamide; hydrochloride] |  | 631 nM |
| CCOCCCNC(=O)c1ccc(C2=N[C@@H]3CCN(C)C[C@@H]3c3cc(OCC)c(OC)cc32)cc1.Cl [Compound 4, 4-((4aR,10bS)-9-Ethoxy-8-methoxy-2-methyl-1,2,3,4,4a,10b-hexahydro-benzo [c][1,6]naphthyridin-6-yl)-N-(3-ethoxy-propyl)-benzamide; hydrochloride] | 8.4 mol/l | 794 nM |
| CCOc1cc2c(cc1OC)C(c1ccc(C(=O)N(CC)CCOC)cc1)=N[C@@H]1CCN(C)C[C@H]21.Cl [Compound 5, 4-((4aR,10bS)-9-Ethoxy-8-methoxy-2-methyl-1,2,3,4,4a,10b-hexahydro-benzo [c][1,6]naphthyridin-6-yl)-N-ethyl-N-(2-methoxy-ethyl)-benzamide; hydrochloride] | 8.9 mol/l | 200 nM |
| CCCN(CCOC)C(=O)c1ccc(C2=N[C@@H]3CCN(C)C[C@@H]3c3cc(OCC)c(OC)cc32)cc1.Cl [Compound 6, 4-((4aR,10bS)-9-Ethoxy-8-methoxy-2-methyl-1,2,3,4,4a,10b-hexahydro-benzo [c][1,6]naphtpyridin-6-yl)-N-(2-methoxy-ethyl)-N-propyl-benzamide; hydrochloride] | 9.2 mol/l | 126 nM |
| CCOc1cc2c(cc1OC)C(c1ccc(C(=O)N[C@@H](C)COC)cc1)=N[C@@H]1CCN(C)C[C@H]21.Cl [Compound 2, 4-((4aR,10bS)-9-Ethoxy-8-methoxy-2-methyl-1,2,3,4,4a,10b-hexahydro-benzo [c][1,6]naphthyridin-6-yl)-N-((S)-2-methoxy-1-methyl-ethyl)-benzamide; hydrochloride] | 8.5 mol/l | 1580 nM |
| CCOc1cc2c(cc1OC)C(c1ccc(C(=O)N(C)[C@H](COCc3ccccc3)CC(C)C)cc1)=N[C@@H]1CCN(C)C[C@H]21 [Compound 22, N—((S)-1-Benzyloxymethyl-3-methyl-butyl)-4-((4aR,10bS)-9-ethoxy-8-methoxy-2-methyl-1,2,3,4,4a,10b-hexahydro-benzo[c][1,6]naphthyridin-6-yl)-N-methyl-benzamide] | 9.4 mol/l | 63.1 nM |
| CCOc1cc2c(cc1OC)C(c1ccc(C(=O)N(CCOC)C(C)C)cc1)=N[C@@H]1CCN(C)C[C@H]21.Cl [Compound 7, 4-((4aR,10bS)-9-Ethoxy-8-methoxy-2-methyl-1,2,3,4,4a,10b-hexahydro-benzo [c][1,6]naphthyridin-6-yl)-N-isopropyl-N-(2-methoxy-ethyl)-benzamide; hydrochloride] | 8.8 mol/l | 79.4 nM |
| CCOc1cc2c(cc1OC)C(c1ccc(C(=O)NCCOC)cc1)=N[C@@H]1CCN(C)C[C@H]21.Cl [Compound 14, 4-((4aR,10bS)-9-Ethoxy-8-methoxy-2-methyl-1,2,3,4,4a,10b-hexahydro-benzo [c][1,6]naphthyridin-6-yl)-N-(2-methoxy-ethyl)-benzamide; hydrochloride] | 7.8 mol/l | 1000 nM |
| CCOc1cc2c(cc1OC)C(c1ccc(C(=O)N(CCCOC)C3CCCCC3)cc1)=N[C@@H]1CCN(C)C[C@H]21.Cl [Compound 13, N-Cyclohexyl-4-((4aR,10bS)-9-ethoxy-8-methoxy-2-methyl-1,2,3,4,4a,10b-hexahydro-benzo [c][1,6]naphthyridin-6-yl)-N-(3-methoxy-propyl)-benzamide; hydrochloride] | 9.9 mol/l | 200 nM |
| CCCCOCCCNC(=O)c1ccc(C2=N[C@@H]3CCN(C)C[C@@H]3c3cc(OCC)c(OC)cc32)cc1.Cl [Compound 16, N-(3-Butoxy-propyl)-4-((4aR,10bS)-9-ethoxy-8-methoxy-2-methyl-1,2,3,4,4a,10b-hexahydro-benzo [c][1,6]naphthyridin-6-yl)-benzamide; hydrochloride] | 8.5 mol/l | 398 nM |
| CCOc1cc2c(cc1OC)C(c1ccc(C(=O)N(CCOC)C3CCCCC3)cc1)=N[C@@H]1CCN(C)C[C@H]21.Cl [Compound 12, N-Cyclohexyl-4-((4aR,10bS)-9-ethoxy-8-methoxy-2-methyl-1,2,3,4,4a,10b-hexahydro-benzo [c][1,6]naphthyridin-6-yl)-N-(2-methoxy-ethyl)-benzamide; hydrochloride] | 9.4 mol/l | 158 nM |
| CCOc1cc2c(cc1OC)C(c1ccc(C(=O)N[C@@H](C)COCc3ccccc3)cc1)=N[C@@H]1CCN(C)C[C@H]21 [Compound 24, N—((S)-2-Benzyloxy-1-methyl-ethyl)-4-((4aR,10bS)-9-ethoxy-8-methoxy-2-methyl-1,2,3,4,4a,10b-hexahydro-benzo[c][1,6]naphthyridin-6-yl)-benzamide] | 9.0 mol/l | 251 nM |
